What was measured:
[1] = biological target: T1, Acetyl-CoA carboxylase 1 (Rattus norvegicus, UniProt P11497); test: Inhibitory concentration against rat heart ACC by the carboxylation of acetyl-CoA with [14C]-HCO3- to form [14C]-malonyl CoA; 18-40 uM
[2] = biological target: T1, Acetyl-CoA carboxylase 1; test: Inhibitory concentration against rat heart ACC by the carboxylation of acetyl-CoA with [14C]HCO3- to form [14C]-malonyl CoA

Row | SMILES | IC50 [1] | IC50 [2]
1 | CCC/C(=N\OCC)C1=C(O)CC(C2CCCSC2)CC1=O (stereo unspecified) | 40 µM | –
2 | C=CCO/N=C(\CCC)C1=C(O)C(C(=O)OC)C(C)(C)CC1=O (stereo unspecified) [ALLOXYDIM] | – | > 100 µM
3 | CCSC(C)CC1CC(=O)C(/C(CC)=N/OC/C=C/Cl)=C(O)C1 (stereo unspecified) [CLETHODIM] | 40 µM | –
4 | CCC/C(=N\OCC)C1=C(O)CC(CC(C)SCC)CC1=O (stereo unspecified) [SETHOXYDIM] | 40 µM | –
5 | CC/C(=N\OC/C=C/Cl)C1=C(O)CC(C2CCOCC2)CC1=O (stereo unspecified) [TEPRALOXYDIM] | 40 µM | –
6 | CCO/N=C(\CC)C1=C(O)CC(c2c(C)cc(C)cc2C)CC1=O (stereo unspecified) [TRALKOXYDIM] | 40 µM | –
